Assay [1] deals with MOLP-8 human multiple myeloma cell line. Put plainly: Caspase-Glo 3/7 apoptosis induction assay in MOLP-8 cells. Type of assay: cell-based. Particulars: MOLP8 cells, 2 hours at 37° C., averaged over all runs on all batches. From the text:
MCL-1 is a regulator of apoptosis and is highly over-expressed in tumor cells that escape cell death. The assay evaluates the cellular potency of small-molecule compounds targeting regulators of the apoptosis pathway, primarily MCL-1, Bfl-1, Bcl-2, and other proteins of the Bcl-2 family. Protein-protein inhibitors disrupting the interaction of anti-apoptotic regulators with BH3-domain proteins initiate apoptosis.
The Caspase-Glo® 3/7 Assay is a luminescent assay that measures caspase-3 and -7 activities in purified enzyme preparations or cultures of adherent or suspension cells. The assay provides a proluminescent caspase-3/7 substrate, which contains the tetrapeptide sequence DEVD. This substrate is cleaved to release aminoluciferin, a substrate of luciferase used in the production of light. Addition of the single Caspase-Glo® 3/7 Reagent in an “add-mix-measure” format results in cell lysis, followed by caspase cleavage of the substrate and generation of a “glow-type” luminescent signal.
This assay uses the MOLP-8 human multiple myeloma cell line, which is sensitive to MCL-1 inhibition.
Cell cultures were maintained between 0.2 and 2.0×10^6 cells/mL. The cells were harvested by collection in 50 mL conical tubes. The cells were then pelleted at 500 g for 5 mins before removing supernatant and resuspension in fresh pre-warmed culture medium. The cells were counted and diluted as needed.
The assay reagent was prepared by transferring the buffer solution to the substrate vial and mixing. The solution may be stored for up to 1 week at 4° C. with negligible loss of signal.
Compounds were delivered in assay-ready plates (Proxiplate) and stored at −20° C.
Assays always include 1 reference compound plate containing reference compounds. The plates were spotted with 40 nL of compounds (0.5% DMSO final in cells; serial dilution; 30 μM highest conc. 1/3 dilution, 10 doses, duplicates). The compounds were used at room temperature and 4 μL of pre-warmed media was added to all wells except column 2 and 23. The negative control was prepared by adding 1% DMSO in media. The positive control was prepared by adding the appropriate positive control compound in final concentration of 60 μM in media. The plate was prepared by adding 4 μL negative control to column 23, 4 μL positive control to column 2 and 4 μL cell suspension to all wells in the plate. The plate with cells was then incubated at 37° C. for 2 hours. The assay signal reagent is the Caspase-Glo solution described above, and 8 μL was added to all wells. The plates were then sealed and measured after 30 minutes.
The activity of a test compound was calculated as percent change in apoptosis induction as follows:
LC=median of the Low Control values
HC=Median of the High Control values
=30 μM of positive control
=100% apoptosis induction
% Effect (AC50)=100−((sample−LC)/(HC−LC))*100
% Control=(sample/HC)*100
% Control min=((sample−LC)/(HC−LC))*100

Assay [2] concerns the target Myeloid Cell Leukemia 1 (Mcl-1) (Homo sapiens (Human), UniProt Q07820). Put plainly: Terbium labeled Mcl-1 HTRF binding assay with Cy5-labeled BIM BH3 peptide. Particulars: Tb-Mcl-1 25 pM, Cy5 Bim peptide 8 nM; Ki=IC50/(1+[L]/Kd), [L]=8 nM, Kd=10 nM. On the procedure:
Terbium labeled Myeloid Cell Leukemia 1 (Mcl-1) homogeneous time-resolved fluorescence (HTRF) binding assay utilizing the BIM BH3 peptide (H2N—(C/Cy5Mal) WIAQELRRIGDEFN-OH) as the binding partner for Mcl-1.
This assay evaluated inhibition of the BH3 domain: Mcl-1 interaction by measuring the displacement of Cy5-labeled BIM BH3 peptide (H2N—(C/Cy5Mal) WIAQELRRIGDEFN-OH) in the HTRF assay format.
The following assay and stock buffers were prepared for use in the assay: (a) Stock buffer: 10 mM Tris-HCl, pH=7.5+150 mM NaCl, filtered, sterilized, and stored at 4° C.; and (b) 1× assay buffer, where the following ingredients were added fresh to stock buffer: 2 mM dithiothreitol (DTT), 0.0025% Tween-20, 0.1 mg/mL bovine serum albumin (BSA). The 1×Tb-Mcl-1+Cy5 Bim peptide solution was prepared by diluting the protein stock solution using the 1× assay buffer (b) to 25 pM Tb-Mcl-1 and 8 nM Cy5 Bim peptide.
Using the Acoustic ECHO, 100 nL of 100× test compound(s) were dispensed into individual wells of a white 384-well Perkin Elmer Proxiplate, for a final compound concentration of 1× and final DMSO concentration of 1%. Inhibitor control and neutral control (NC, 100 nL of 100% DMSO) were stamped into columns 23 and 24 of assay plate, respectively. Into each well of the plate was then dispensed 10 μL of the 1×Tb-Mcl-1+Cy5 Bim peptide solution. The plate was centrifuged with a cover plate at 1000 rpm for 1 minute, then incubated for 60 minutes at room temperature with plates covered.
The TR-FRET signal was read on an BMG PHERAStar FSX MicroPlate Reader at room temperature using the HTRF optic module (HTRF: excitation: 337 nm, light source: laser, emission A: 665 nm, emission B: 620 nm, integration start: 60 μs, integration time: 400 μs).
The BMG PHERAStar FSX MicroPlate Reader was used to measure fluorescence intensity at two emission wavelengths—665 nm and 620 nm—and report relative fluorescence units (RFU) for both emissions, as well as a ratio of the emissions (665 nm/620 nm)*10,000. The RFU values were normalized to percent inhibition as follows:
% inhibition=(((NC−IC)−(compound−IC))/(NC−IC))*100
where IC (inhibitor control, low signal)=mean signal of 1×Tb-MCl-1+Cy5 Bim peptide+ inhibitor control or 100% inhibition of Mcl-1; NC (neutral control, high signal)=mean signal 1×Tb-MCl-1+Cy5 Bim peptide with DMSO only or 0% inhibition
An 11-point dose response curve was generated to determine IC50 values (using GenData) based on the following equation:
Y=Bottom+(Top−Bottom)/(1+10^((log IC50−X)*HillSlope))
where Y=% inhibition in the presence of X inhibitor concentration; Top=100% inhibition derived from the IC (mean signal of Mcl-1+inhibitor control); Bottom=0% inhibition derived from the NC (mean signal of Mcl-1+DMSO); Hillslope=Hill coefficient; and IC50=concentration of compound with 50% inhibition in relation to top/neutral control (NC).
In this assay [L]=8 nM and Kd=10 nM
Representative compounds of the present invention were tested according to the procedure as described above, with results as listed in the Table below (n.d. means not determined).

This passage reports AC50 and Ki results from patent publication US20240190893A1, “MACROCYCLIC 1,3-BRIDGED 6-CHLORO-7-PYRAZOL-4-YL-1 H-INDOLE-2-CARBOXYLATE AND 6-CHLORO-7-PYRIMIDIN-5-YL-1H-INDOLE-2-CARBOXYLATE DERIVATIVES AS MCL-1 INHIBITORS FOR THE TREATMENT OF CANCER” (JANSSEN PHARMACEUTICA NV, priority 2021, published 2024).

Myeloid Cell Leukemia 1 (Mcl-1), sequence (Q07820 whole entry): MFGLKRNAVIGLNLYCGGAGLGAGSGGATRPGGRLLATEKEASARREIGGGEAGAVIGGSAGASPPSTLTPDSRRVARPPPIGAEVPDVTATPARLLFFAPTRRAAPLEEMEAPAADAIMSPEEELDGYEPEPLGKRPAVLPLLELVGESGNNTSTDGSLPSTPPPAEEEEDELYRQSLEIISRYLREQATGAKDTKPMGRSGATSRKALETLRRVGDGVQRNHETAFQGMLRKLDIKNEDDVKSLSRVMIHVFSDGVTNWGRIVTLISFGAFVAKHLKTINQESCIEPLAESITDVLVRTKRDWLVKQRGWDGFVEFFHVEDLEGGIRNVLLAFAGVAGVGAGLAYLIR

In turn, `Cc1nn(C)c(C)c1-c1c(Cl)ccc2c3c(C(=O)O)n(c12)CCCSCc1cc(n(C)n1)CSc1cc(c2ccccc2c1)OCCC3` [Compound 18] yielded an AC50 in assay [1] of 3640 nM.
`Cc1nn(C)c(C)c1-c1c(Cl)ccc2c3c(C(=O)O)n(c12)CCCSCc1cc(n(C)n1)CCc1cc(c2ccc(F)cc2c1)OCCC3` [Compound 1]: the AC50 in assay [1] (Homo sapiens, MOLP-8, 2 h) came out at 90.5 nM. Further, the Ki in assay [2] turned out to be 0.126 nM.
For `Cc1nn(C)c(C)c1-c1c(Cl)ccc2c3c(C(=O)O)n(c12)CCSCc1cc(n(C)n1)CSc1cc(c2ccccc2c1)OCCC3` (single isomer, unassigned) [Compound 14], in assay [1], the AC50 came to 1540 nM. This compound also yielded a Ki in assay [2] of 0.423 nM.
The matching figures for `COCCOCc1nn(C)c(C)c1-c1c(Cl)ccc2c3c(C(=O)O)n(c12)CCCSCc1cc(n(C)n1)CCc1cc(c2ccc(F)cc2c1)OCCC3` (single isomer, unassigned) [Compound 20]: 173 nM and 0.073 nM.
The matching figures for `Cc1c(-c2c(Cl)ccc3c4c(C(=O)O)n(c23)CCCSCc2cc(n(C)n2)CCc2cc(c3ccc(F)cc3c2)OCCC4)c(CO)nn1C` (single isomer, unassigned) [Compound 16]: 414 nM and 0.056 nM.
On to `Cc1nn(C)c(C)c1-c1c(Cl)ccc2c3c(C(=O)O)n(c12)CCCSCc1cc(n(C)n1)CSc1cc(c2ccccc2c1)OCCC3` [Compound 19], for which the AC50 in assay [1] is 740 nM.
Regarding `Cc1nn(C)c(C)c1-c1c(Cl)ccc2c3c(C(=O)O)n(c12)CCCSCc1cc(n(C)n1)CCc1cc(c2ccc(F)cc2c1)OCCC3` (single isomer, unassigned) [Compound 3], the AC50 in assay [1] is 207 nM. Besides, the Ki in assay [2] is 0.133 nM.
The matching figures for `Cc1nn(C)c(C)c1-c1c(Cl)ccc2c3c(C(=O)O)n(c12)CCSCc1cc(n(C)n1)CCc1cc(c2ccccc2c1)OCCC3` (single isomer, unassigned) [Compound 12]: 1350 nM and 0.396 nM.
For `Cc1nn(C)c(C)c1-c1c(Cl)ccc2c3c(C(=O)O)n(c12)CCSCc1cc(n(C)n1)CSc1cc(c2ccccc2c1)OCCC3` (single isomer, unassigned) [Compound 13], in assay [1] (Homo sapiens, MOLP-8, 2 h), the activity was half-maximal at 1340 nM (AC50). This compound also showed a Ki in assay [2] of 0.392 nM.
For `Cc1nn(C)c(C)c1-c1c(Cl)ccc2c3c(C(=O)O)n(c12)CCCS(=O)(=O)Cc1cc(n(C)n1)CCc1cc(c2ccc(F)cc2c1)OCCC3` (single isomer, unassigned) [Compound 5], half-maximal activity in assay [1] (AC50) was put at 7270 nM. The same compound had a Ki in assay [2] of 0.276 nM.
In assay [1] (Homo sapiens, MOLP-8, 2 h), `COCCn1nc(C)c(-c2c(Cl)ccc3c4c(C(=O)O)n(c23)CCCSCc2cc(n(C)n2)CCc2cc(c3ccc(F)cc3c2)OCCC4)c1C` (single isomer, unassigned) [Compound 9] yielded an AC50 of 232 nM. The same compound gave a Ki in assay [2] of 0.139 nM.
`Cc1nn(C)c(C)c1-c1c(Cl)ccc2c3c(C(=O)O)n(c12)CCCS(=O)(=O)Cc1cc(n(C)n1)CCc1cc(c2ccc(F)cc2c1)OCCC3` (single isomer, unassigned) [Compound 4] had an AC50 in assay [1] (Homo sapiens, MOLP-8, 2 h) of 7030 nM. In assay [2], this compound gave a Ki of 0.251 nM.
As for `Cc1c(-c2c(Cl)ccc3c4c(C(=O)O)n(c23)CCCSCc2cc(n(C)n2)CCc2cc(c3ccc(F)cc3c2)OCCC4)c(CO)nn1C` (single isomer, unassigned) [Compound 17], the AC50 in assay [1] was found to be 1830 nM. This compound also showed a Ki in assay [2] of 0.08 nM.
`Cn1nc2cc1CCc1cc(c3ccc(F)cc3c1)OCCCc1c(C(=O)O)n(c3c(-c4cncnc4)c(Cl)ccc13)CCC[S+]([O-])C2` (stereo not drawn) [Compound 15] returned a Ki in assay [2] of 0.426 nM.
In turn, `COCCOCc1nn(C)c(C)c1-c1c(Cl)ccc2c3c(C(=O)O)n(c12)CCCSCc1cc(n(C)n1)CCc1cc(c2ccc(F)cc2c1)OCCC3` (single isomer, unassigned) [Compound 21] came in with an AC50 in assay [1] of 1010 nM. In assay [2], the affinity corresponds to a Ki of 0.155 nM.
The matching figures for `COCCn1nc(C)c(-c2c(Cl)ccc3c4c(C(=O)O)n(c23)CCCSCc2cc(n(C)n2)CCc2cc(c3ccc(F)cc3c2)OCCC4)c1C` (single isomer, unassigned) [Compound 10]: 160 nM and 0.093 nM.
Compound `Cn1cc(-c2c(Cl)ccc3c4c(C(=O)O)n(c23)CCCSCc2cc(n(C)n2)CCc2cc(c3ccc(F)cc3c2)OCCC4)cn1` [Compound 8] showed an AC50 in assay [1] (Homo sapiens, MOLP-8, 2 h) of 1340 nM. This compound also yielded a Ki in assay [2] of 0.977 nM.
The matching figures for `Cc1nn(C)c(C)c1-c1c(Cl)ccc2c3c(C(=O)O)n(c12)CCSCc1cc(n(C)n1)CCc1cc(c2ccc(F)cc2c1)OCCC3` (single isomer, unassigned) [Compound 6]: 237 nM and 0.056 nM.
`Cc1nn(C)c(C)c1-c1c(Cl)ccc2c3c(C(=O)O)n(c12)CCSCc1cc(n(C)n1)CCc1cc(c2ccc(F)cc2c1)OCCC3` (single isomer, unassigned) [Compound 7]: the activity in assay [1] was half-maximal at 231 nM (AC50). Also, the affinity in assay [2] corresponds to a Ki of 0.086 nM.
Compound `Cc1nn(C)c(C)c1-c1c(Cl)ccc2c3c(C(=O)O)n(c12)CCCSCc1cc(n(C)n1)CCc1cc(c2ccc(F)cc2c1)OCCC3` (single isomer, unassigned) [Compound 2] yielded an AC50 in assay [1] (Homo sapiens, MOLP-8, 2 h) of 130 nM. In assay [2], this compound displayed a Ki of 0.084 nM.
The matching figures for `Cc1nn(C)c(C)c1-c1c(Cl)ccc2c3c(C(=O)O)n(c12)CCSCc1cc(n(C)n1)CCc1cc(c2ccccc2c1)OCCC3` (single isomer, unassigned) [Compound 11]: 1460 nM and 0.307 nM.
